Data reported in patent US10118935B2, “Melampomagnolide B dimers” (priority 2014, dated 2018).
Like-named read-outs stand apart in the source and are kept apart here.

Assays:
COLO 205 = test: NCI 60 cell line five dose, Colon Cancer
K-562 = test: NCI 60 cell line five dose, Leukemia
SF-268 = test: NCI 60 cell line five dose, CNS Cancer
OVCAR-4 [1] = system: OVCAR-4
NCI-H322M = test: NCI 60 cell line five dose, Non-Small Cell Lung Cancer
SK-MEL-2 = test: NCI 60 cell line five dose, Melanoma
SF-295 = test: NCI 60 cell line five dose, CNS Cancer
SR = test: NCI 60 cell line five dose, Leukemia
NCI-H23 = test: NCI 60 cell line five dose, Non-Small Cell Lung Cancer
RXF 393 = test: NCI 60 cell line five dose, Renal Cancer
OVCAR-4 [2] = test: NCI 60 cell line five dose, Ovarian Cancer
IGROV1 = test: NCI 60 cell line five dose, Ovarian Cancer; assay type: cell-based, human
HOP-62 = test: NCI 60 cell line five dose, Non-Small Cell Lung Cancer; assay type: cell-based, human

Q: Which results are given for `C=C1C(=O)O[C@H]2[C@H]1CC/C(COC(=O)CCC(=O)NCCCCCCCCCNC(=O)CCC(=O)OC/C1=C/CC[C@@]3(C)O[C@H]3[C@H]3OC(=O)C(=C)[C@@H]3CC1)=C\CC[C@@]1(C)O[C@@H]21` [JVM 2-92, bis(((1aR,7aS,10aS,10bS,E)-1a-Methyl-8-methylene-9-oxo-1a,2,3,6,7,7a,8,9,10a,10b-decahydrooxireno[2′,3′:9,10]cyclodeca[1,2-b]furan-5-yl)methyl)4,4′-(nonane-1,9-diylbis(azanediyl))bis (4-oxobutanoate)]?
A: CC50 (ACHN): 17.2 µM; CC50 (HCT-15): 46 µM; GI50 (COLO 205): 1.22 µM; TGI (COLO 205): 3.16 µM; CC50 (HOP-92): 6.64 µM; GI50 (K-562): 0.45 µM; TGI (K-562): 3.21 µM; GI50 (SF-268): 2.92 µM; TGI (SF-268): 10.1 µM; CC50 (UACC-62): 8.44 µM; CC50 (OVCAR-3): 5.3 µM; CC50 (LOX IMVI): 4.06 µM; CC50 (OVCAR-4 [1]): 8.06 µM; GI50 (NCI-H322M): 16.3 µM; TGI (NCI-H322M): 31.6 µM; GI50 (SK-MEL-2): 2.12 µM; TGI (SK-MEL-2): 4.15 µM; GI50 (SF-295): 7.68 µM; TGI (SF-295): 21.9 µM; GI50 (HL-60(TB)): 0.44 µM; TGI (HL-60(TB)): 2.13 µM; CC50 (HL-60(TB); read-out: LC50): > 100 µM; CC50 (CCRF-CEM): > 100 µM; CC50 (TK-10): 6.02 µM; result compared to parthenolide (M9ENL AML cell lines; 10 μM, M9ENL cell line, FIG. 4): promising result; GI50 (SR): 0.33 µM; TGI (SR): 1.17 µM; CC50 (SW-620): 6.14 µM; CC50 (SK-MEL-5): 9.37 µM; CC50 (HS 578T): > 100 µM; GI50 (NCI-H23): 2.23 µM; TGI (NCI-H23): 5.13 µM; GI50 (RXF 393): 1.01 µM; TGI (RXF 393): 2.50 µM; CC50 (MDA-MB-231/ATCC): 13.3 µM; CC50 (MDA-MB-435): 7.25 µM; CC50 (A549/ATCC): 82.6 µM; CC50 (DU-145): 5.78 µM; CC50 (SK-OV-3): 49.1 µM; GI50 (OVCAR-4 [2]): 1.48 µM; TGI (OVCAR-4 [2]): 3.46 µM; CC50 (KM12): 50.2 µM; CC50 (OVCAR-8): > 100 µM; CC50 (SK-MEL-28): 6.22 µM; CC50 (786-0): 6.04 µM

Q: Which results are given for `C=C1C(=O)O[C@H]2[C@H]1CC/C(COC(=O)NCCCCCCCCNC(=O)OC/C1=C/CC[C@@]3(C)O[C@H]3[C@H]3OC(=O)C(=C)[C@@H]3CC1)=C\CC[C@@]1(C)O[C@@H]21` [JVM 3-62, bis(((1aR,7aS, 10aS, 10bS, E)-1a-Methyl-8-methylene-9-oxo-1a,2,3,6,7,7a,8,9,10a,10b-decahydrooxireno[2′,3′:9,10]cyclodeca[1,2-b]furan-5-yl)methyl)octane-1,8-diyldicarbamate]?
A: Percent Growth (IGROV1; Log10 Concentration −4.0): −71%; Percent Growth (IGROV1; Log10 Concentration −5.0): −71%; Percent Growth (IGROV1; Log10 Concentration −6.0): 61%; Percent Growth (IGROV1; Log10 Concentration −7.0): 102%; Percent Growth (IGROV1; Log10 Concentration −8.0): 105%; GI50 (IGROV1; molar): 1.01 µM; TGI (IGROV1; molar): 2.61E−6; Percent Growth (COLO 205; Log10 Concentration −4.0): −65%; Percent Growth (COLO 205; Log10 Concentration −5.0): −73%; Percent Growth (COLO 205; Log10 Concentration −6.0): −15%; Percent Growth (COLO 205; Log10 Concentration −7.0): 109%; Percent Growth (COLO 205; Log10 Concentration −8.0): 104%; GI50 (COLO 205; molar): 0.3 µM; TGI (COLO 205; molar): 7.56E−7; CC50 (COLO 205; read-out: LC50, molar): 3.99 µM; Percent Growth (K-562; Log10 Concentration −4.0): −44%; Percent Growth (K-562; Log10 Concentration −5.0): −14%; Percent Growth (K-562; Log10 Concentration −6.0): 2%; Percent Growth (K-562; Log10 Concentration −7.0): 107%; Percent Growth (K-562; Log10 Concentration −8.0): 103%; GI50 (K-562; molar): 0.349 µM; TGI (K-562; molar): 1.37E−6; CC50 (K-562; read-out: LC50, molar): > 100 µM; Percent Growth (SF-268; Log10 Concentration −4.0): −59%; Percent Growth (SF-268; Log10 Concentration −5.0): −66%; Percent Growth (SF-268; Log10 Concentration −6.0): 50%; Percent Growth (SF-268; Log10 Concentration −7.0): 104%; Percent Growth (SF-268; Log10 Concentration −8.0): 101%; GI50 (SF-268; molar): 0.999 µM; TGI (SF-268; molar): 2.69E−6; CC50 (SF-268; read-out: LC50, molar): 7.24 µM; Percent Growth (NCI-H322M; Log10 Concentration −4.0): −91%; Percent Growth (NCI-H322M; Log10 Concentration −5.0): −51%; Percent Growth (NCI-H322M; Log10 Concentration −6.0): 100%; Percent Growth (NCI-H322M; Log10 Concentration −7.0): 104%; Percent Growth (NCI-H322M; Log10 Concentration −8.0): 107%; GI50 (NCI-H322M; molar): 2.14 µM; Percent Growth (SK-MEL-2; Log10 Concentration −4.0): −68%; Percent Growth (SK-MEL-2; Log10 Concentration −5.0): −45%; Percent Growth (SK-MEL-2; Log10 Concentration −6.0): 36%; Percent Growth (SK-MEL-2; Log10 Concentration −7.0): 100%; Percent Growth (SK-MEL-2; Log10 Concentration −8.0): 92%; GI50 (SK-MEL-2; molar): 0.601 µM; TGI (SK-MEL-2; molar): 2.79E−6; Percent Growth (SF-295; Log10 Concentration −4.0): −87%; Percent Growth (SF-295; Log10 Concentration −5.0): −40%; Percent Growth (SF-295; Log10 Concentration −6.0): 87%; Percent Growth (SF-295; Log10 Concentration −7.0): 92%; Percent Growth (SF-295; Log10 Concentration −8.0): 85%; GI50 (SF-295; molar): 1.95 µM; TGI (SF-295; molar): 4.82E−6; CC50 (SF-295; read-out: LC50, molar): 16.2 µM; Percent Growth (HL-60(TB); Log10 Concentration −4.0): −39%; Percent Growth (HL-60(TB); Log10 Concentration −5.0): −37%; Percent Growth (HL-60(TB); Log10 Concentration −6.0): −6%; Percent Growth (HL-60(TB); Log10 Concentration −7.0): 92%; Percent Growth (HL-60(TB); Log10 Concentration −8.0): 103%; GI50 (HL-60(TB); molar): 0.268 µM; CC50 (HL-60(TB); read-out: LC50, molar): > 100 µM; CC50 (M9ENL AML cell lines; read-out: LC50, M9ENL AML cell lines, after 24 hours of drug exposure): 1 µM; Percent Growth (SR; Log10 Concentration −4.0): −31%; Percent Growth (SR; Log10 Concentration −5.0): −26%; Percent Growth (SR; Log10 Concentration −6.0): 6%; Percent Growth (SR; Log10 Concentration −7.0): 95%; Percent Growth (SR; Log10 Concentration −8.0): 98%; GI50 (SR; molar): 0.317 µM; CC50 (SR; read-out: LC50, molar): > 100 µM; Percent Growth (NCI-H23; Log10 Concentration −4.0): −78%; Percent Growth (NCI-H23; Log10 Concentration −5.0): −85%; Percent Growth (NCI-H23; Log10 Concentration −6.0): 27%; Percent Growth (NCI-H23; Log10 Concentration −7.0): 100%; Percent Growth (NCI-H23; Log10 Concentration −8.0): 100%; GI50 (NCI-H23; molar): 0.485 µM; TGI (NCI-H23; molar): 1.74E−6; CC50 (NCI-H23; read-out: LC50, molar): 4.86 µM; Percent Growth (RXF 393; Log10 Concentration −4.0): −76%; Percent Growth (RXF 393; Log10 Concentration −5.0): −92%; Percent Growth (RXF 393; Log10 Concentration −6.0): −82%; Percent Growth (RXF 393; Log10 Concentration −7.0): 85%; Percent Growth (RXF 393; Log10 Concentration −8.0): 96%; GI50 (RXF 393; molar): 0.162 µM; TGI (RXF 393; molar): 3.22E−7; CC50 (RXF 393; read-out: LC50, molar): 0.64 µM; Percent Growth (HOP-62; Log10 Concentration −4.0): −80%; Percent Growth (HOP-62; Log10 Concentration −5.0): −64%; Percent Growth (HOP-62; Log10 Concentration −6.0): 76%; Percent Growth (HOP-62; Log10 Concentration −7.0): 103%; Percent Growth (HOP-62; Log10 Concentration −8.0): 103%; GI50 (HOP-62; molar): 1.53 µM; TGI (HOP-62; molar): 3.49E−6; CC50 (HOP-62; molar, read-out: LC50 (the source's name)): 7.95 µM; Percent Growth (OVCAR-4 [2]; Log10 Concentration −4.0): −89%; Percent Growth (OVCAR-4 [2]; Log10 Concentration −5.0): −92%; Percent Growth (OVCAR-4 [2]; Log10 Concentration −6.0): 34%; Percent Growth (OVCAR-4 [2]; Log10 Concentration −7.0): 91%; Percent Growth (OVCAR-4 [2]; Log10 Concentration −8.0): 90%; GI50 (OVCAR-4 [2]; molar): 0.521 µM; CC50 (OVCAR-4 [2]; read-out: LC50, molar): 4.63 µM
